Laboratory results from ChEMBL document CHEMBL5604063, “ASAP - DENV-2 NS2B-NS3 protease fluorescence dose response” (2024).
“And” between values parts separate entries of the source, which are not always exact repeats. Equal entries are not always repeated.

Key:
Genome polyprotein [1] = biological target: T1, Genome polyprotein (dengue virus type 2, UniProt P29990); format: functional, Thailand/16681/1984
Genome polyprotein [2] = biological target: T1, Genome polyprotein; format: functional, Thailand/16681/1984; remark: listed apart in the source

T1 sequence (P29990 1346-1475 limits assumed): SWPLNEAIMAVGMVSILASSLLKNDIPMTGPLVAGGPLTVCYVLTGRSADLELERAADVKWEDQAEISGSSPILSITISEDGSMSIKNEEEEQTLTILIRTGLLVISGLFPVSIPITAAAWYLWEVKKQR
T1 sequence (P29990 1476-2093 limits assumed): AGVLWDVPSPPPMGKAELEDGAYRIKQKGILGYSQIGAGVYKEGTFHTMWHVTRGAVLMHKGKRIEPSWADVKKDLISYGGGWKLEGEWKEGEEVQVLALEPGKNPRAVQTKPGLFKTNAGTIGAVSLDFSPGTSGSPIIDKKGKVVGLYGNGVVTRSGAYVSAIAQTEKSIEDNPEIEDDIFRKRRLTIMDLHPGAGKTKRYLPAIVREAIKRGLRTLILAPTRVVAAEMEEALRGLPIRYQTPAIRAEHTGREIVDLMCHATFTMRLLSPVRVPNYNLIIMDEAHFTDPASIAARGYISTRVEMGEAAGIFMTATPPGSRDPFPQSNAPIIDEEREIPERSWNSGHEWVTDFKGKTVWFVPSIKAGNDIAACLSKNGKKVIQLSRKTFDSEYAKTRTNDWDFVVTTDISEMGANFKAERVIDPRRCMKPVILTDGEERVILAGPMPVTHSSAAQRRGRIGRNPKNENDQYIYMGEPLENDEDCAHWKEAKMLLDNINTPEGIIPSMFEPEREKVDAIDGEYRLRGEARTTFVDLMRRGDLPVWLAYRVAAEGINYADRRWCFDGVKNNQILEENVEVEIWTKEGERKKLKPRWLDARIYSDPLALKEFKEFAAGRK

Structure (SMILES)	IC50 (Genome polyprotein [1])	IC50 (Genome polyprotein [2])
CCn1c(=O)c(N2CC[C@H](CO)C2)nc2ccc(C(N)=O)cc21	81.7 µM	> 100 µM
O=C(Nc1cc(Cl)cc(C(=O)Nc2ccc3c(c2)C[C@H](O)C3)c1)OCc1ccccc1	> 99.5 µM	> 100 µM
O=C(Nc1cc(Cl)cc(C(=O)NCCc2nnn[nH]2)c1)OCc1ccccc1	> 99.5 µM	> 100 µM
CNC(=O)C[C@H](Nc1ccccn1)c1cc(Cl)cc(Br)c1	> 99.5 µM	> 100 µM
N[C@H]1Cc2ccc(NC(=O)c3cc(Cl)cc(NC(=O)OCc4ccccc4)c3)cc2C1	33.3 µM	64.2 µM
Cc1nc(-c2ccc(Cl)cc2)sc1C(=O)Nc1cccc(CN)c1	> 99.5 µM	> 100 µM
CCn1c(=O)c(N2CC[C@H](CO)C2)nc2cc(C(N)=O)ccc21	> 99.5 µM	> 100 µM
O=C(Nc1cc(Cl)cc(C(=O)Nc2ccc(S(=O)(=O)N3CCNCC3)cc2)c1)OCc1ccccc1	> 99.5 µM	> 100 µM
Cc1c(C(=O)Nc2cccc(CN)c2)cc(C2CC2)n1C	> 99.5 µM	> 100 µM
O=C(Nc1cc(Cl)cc(C(=O)Nc2ccc3c(c2)OCO3)c1)OCc1ccccc1	> 99.5 µM	> 100 µM
NCc1cccc(NC(=O)c2cc(Cl)cc([C@H]3CCCCN3)c2)c1	> 99.5 µM	> 100 µM
CS(=O)(=O)c1cc(CN)cc(NC(=O)c2cc(Cl)cc(NC(=O)OCc3ccccc3)c2)c1	> 99.5 µM	> 100 µM
Cc1c(C(=O)Nc2cccc([C@H]3CCNC3)c2)cc(C2CC2)n1C	> 99.5 µM	> 100 µM
Cc1c(C(=O)Nc2cccc(CN)c2)cc(C(C)C)n1C	> 99.5 µM	> 100 µM
NCCNS(=O)(=O)c1ccc(NC(=O)c2cc(Cl)cc(NC(=O)OCc3ccccc3)c2)cc1	33.6 µM	> 100 µM
Cc1c(C(=O)Nc2cccc(CCN)c2)cc(C2CC2)n1C	> 99.5 µM	> 100 µM
O=C(Nc1cc(Cl)cc(C(=O)Nc2ccc(C3CCNCC3)cc2)c1)OCc1ccccc1	15.7 µM and 21.1 µM	41.3 µM
O=C(Nc1cc(Cl)cc(C(=O)Nc2cccc(-c3cn[nH]n3)c2)c1)OCc1ccccc1	55.7 µM	> 100 µM
CCc1cc(C(=O)Nc2cccc(CN)c2)sc1C	> 99.5 µM	> 100 µM
Cc1ccc(NC(=O)c2cc(C3CC3)n(C)c2C)cc1CN	> 99.5 µM	> 100 µM
Cc1onc(C(=O)Nc2cccc(CN)c2)c1COc1cccc(F)c1	> 99.5 µM	> 100 µM

Structure (SMILES)	IC50 (Genome polyprotein [1])	IC50 (Genome polyprotein [2])
NCc1ccc(C#CCO)c(NC(=O)c2cc(Cl)cc(NC(=O)OCc3ccccc3)c2)c1	38 µM	> 100 µM
CC[C@H](Cc1nnn[nH]1)c1ccc(NC(=O)c2cc(Cl)cc3[nH]ncc23)cc1	> 99.5 µM	> 100 µM
Cc1nn(CCO)c(C(F)F)c1C(=O)Nc1cccc(CN)c1	> 99.5 µM	> 100 µM
CCc1nc(C(=O)Nc2cccc(CN)c2)nn1-c1c(Cl)cccc1Cl	> 99.5 µM	> 100 µM
NCc1cccc(NC(=O)c2c(C(F)(F)F)nc3n2CCCC3)c1	> 99.5 µM	> 100 µM
N#Cc1cc(Cl)cc(C(=O)Nc2cccc(-n3nn[nH]c3=O)c2)c1	> 99.5 µM	> 100 µM
Cc1cnnc(C(=O)Nc2cccc(CN)c2)c1	> 99.5 µM	> 100 µM
N#CC[C@H](N)c1cccc(NC(=O)c2cc(Cl)cc(NC(=O)OCc3ccccc3)c2)c1	> 99.5 µM	> 100 µM
O=C(Nc1cc(Cl)cc(C(=O)Nc2ccc(OC3CNC3)cc2)c1)OCc1ccccc1	64.2 µM	> 100 µM
CSc1cc(Cl)cc(C(=O)Nc2cccc(-n3nn[nH]c3=O)c2)c1	> 99.5 µM	78.2 µM
Cc1nc(N2CCOCC2)sc1CC(=O)Nc1cccc(CN)c1	> 99.5 µM	> 100 µM
NCCCCc1ccc(NC(=O)c2cc(Cl)cc(NC(=O)OCc3ccccc3)c2)cc1	11.8 µM and 19.5 µM	33.2 µM
CS(=O)(=O)c1ccc(CN)cc1NC(=O)c1cc(Cl)cc(NC(=O)OCc2ccccc2)c1	> 99.5 µM	> 100 µM
O=C(O)CCc1ccc(NC(=O)c2cc(Cl)cc(NC(=O)OCc3ccccc3)c2)cc1	42.8 µM	17.7 µM
CC(C)c1occ(C(F)(F)F)c1C(=O)Nc1cccc(CN)c1	> 99.5 µM	> 100 µM
Nc1cccc(NC(=O)c2cc(Cl)cc(NC(=O)OCc3ccccc3)c2)n1	> 99.5 µM	> 100 µM
NCc1nc(-c2ccc(NC(=O)c3cc(Cl)cc(NC(=O)OCc4ccccc4)c3)cc2)n[nH]1	48.2 µM	> 100 µM
NCc1cccc(NC(=O)[C@H]2CC(=O)Nc3ccc(Br)cc32)c1	> 99.5 µM	> 100 µM
O=C(Nc1cc(Cl)cc(C(=O)NCCCc2nnn[nH]2)c1)OCc1ccccc1	> 99.5 µM	> 100 µM
O=C(Nc1cc(Cl)cc(C(=O)Nc2ccc(-n3nn[nH]c3=O)cc2)c1)OCc1ccccc1	13.3 µM and 14.1 µM	7.45 µM and 7.74 µM
